This is an account of results in patent US8455491B2, “6-cycloamino-3-(pyridazin-4-yl)imidazo[1,2-b]pyridazine and derivatives and pharmaceutical compositions comprising the same” (Sanofi, priority 2007, dated 2013).

Each structure is given as a SMILES string.

Data set [1] addresses T1, casein kinase 1 epsilon (CK1 epsilon) (Homo sapiens, UniProt P49674).
T1 construct: Invitrogen Corporation (named as alternative)
In words: Filter-plate assay of ATP-33P, inhibition of casein phosphorylation by CK1 epsilon. The class given is biochemical. The settings on record: casein substrate, ATP 10 μM, 2 hours at ambient temperature. The procedure: The capacity of the compounds of the invention to inhibit the phosphorylation of casein by casein kinase 1 epsilon and delta may be evaluated according to the procedure described in US 2005/0131012.
Filter-Plate Assay of ATP-^33P for the Screening of CK1 Epsilon Inhibitors:
The effect of the compounds on inhibition of the phosphorylation of casein by the enzyme casein kinase 1 epsilon (CK1 epsilon) is measured, using a casein assay with filtration of ATP-^33P in vitro.
Casein kinase 1 epsilon (0.58 mg/ml) is obtained via fermentation and purification processes performed according to methods that are well known to those skilled in the art, or may also be obtained from Invitrogen Corporation™ (human CK1 epsilon).
The compounds are tested at five different concentrations so as to generate IC50 values, i.e. the concentration at which a compound is capable of inhibiting the enzymatic activity by 50%, or alternatively the percentage of inhibition at a concentration of 10 micromolar.
“U”-bottomed Falcon plates are prepared by placing 5 μL of solutions of the compounds according to the invention at concentrations of 10, 1, 0.1, 0.01 or 0.001 μM in various wells. The solutions of the compounds according to the invention at these various concentrations are prepared by diluting in a test buffer (50 mM Tris, pH 7.5, […], 2 mM DTT and 1 mM EGTA) a stock solution in DMSO at a concentration of 10 mM. Next, 5 μL of dephosphorylated casein are added to a final concentration of 0.2 μg/μL, 20 μl of CK1 epsilon to a final concentration of 3 ng/μl, and 20 μl of ATP-^33P to a final concentration of 0.02 μCi/μl mixed with cold ATP (10 μM final—approximately 2×10^6 CPM per well). The final total test volume per well is equal to 50 μl.
The “U”-bottomed Falcon® test plate mentioned above is vortexed, and then incubated at ambient temperature for 2 hours. After 2 hours, the reaction is stopped by adding an ice-cold solution of 65 μl of ATP (2 mM) prepared in test buffer.
100 μl of the reaction mixture are then transferred from the “U”-bottomed Falcon® plate into Millipore® MAPH filter plates, preimpregnated with 25 μl of ice-cold 100% TCA. […]
The plates are left to dry overnight at ambient temperature. […] The radiation emitted by each well is then measured for 2 minutes in a Packard® Topcount NXT scintillation counter, in which the values of CPM/well are measured.
The percentage inhibition of the capacity of the enzyme to phosphorylate the substrate (casein) is determined for each concentration of compound tested. These inhibition data expressed as percentages are used to calculate the IC50 value for each compound compared with the controls.
The kinetic studies determined the KM value for ATP as being 21 μM in this test system.

Data set [2] relates to Mper1-luc Rat-1 (P2C4) fibroblasts. In words: Circadian cell assay (mPer1-luciferase reporter, period prolongation). In kind it is cell-based. To be noted: effective concentration that induced a 1-hour prolongation of the circadian period, interpolated from hyperbolic curve. The procedure: Experimental Protocols for Circadian Cell Assay
Mper1-luc Rat-1 (P2C4) fibroblast cultures were prepared by dividing the cultures every 3-4 days (approximately 10-20% of confluence) on 150 cm^2 degassed polystyrene tissue culture flasks (Falcon® #35-5001) and maintained in growth medium [EMEM (Cellgro #10-010-CV); 10% fetal bovine serum (FBS; Gibco #16000-044); and 50 I.U./ml of penicillin-streptomycin (Cellgro #30-001-CI)] at 37° C. and under 5% CO2.
Cells obtained from Rat-1 fibroblast cultures at 30-50% of confluence as described above were co-transfected with vectors containing the selection marker for resistance to zeocin for a stable transfection and a luciferase reporter gene controlled by the mPer-1 promoter. After 24 to 48 hours, the cultures were divided on 96-well plates and maintained in growth medium supplemented with 50-100 μg/ml of zeocin (Invitrogen® #45-0430) for 10-14 days. The zeocin-resistant stable transfectants were evaluated for the expression of the reporter by adding 100 μM lucerfin (Promega® #E1603®) to the growth medium and by assaying the luciferase activity on a TopCount® scintillation counter (Packard Model #C384V00). The Rat-1 cell clones expressing both zeocin resistance and lucerifase activity controlled by mPer1 were serum-shock synchronized with 50% horse serum [HS (Gibco® #16050-122)] and the activity of the circadian reporter was evaluated. The P2C4 clone of Mper1-luc Rat-1 fibroblasts was selected to test the compound.
Mper1-luc Rat-1 (P2C4) fibroblasts at 40-50% of confluence, obtained according to the protocol described above, were plated out onto 96-well opaque tissue culture plates (Perkin Elmer® #6005680). The cultures are maintained in growth medium supplemented with 100 μg/ml of zeocin (Invitrogen #45-0430) until they reach 100% of confluence (48-72 h). The cultures were then synchronized with 100 μl of synchronization medium [EMEM (Cellgro #10-010-CV); 100 I.U./ml of penicillin-streptomycin (Cellgro #30-001-C1); 50% HS (Gibco #16050-122)] for 2 hours at 37° C. and under 5% CO2. After synchronization, the cultures were rinsed with 100 μl of EMEM (Cellgro #10-010-CV) for 10 minutes at ambient temperature. […]
The period analysis was performed either by determining the interval between the relative light emission minima over several days or by Fourier transform. […] The data were analyzed by adjusting a hyperbolic curve to the data expressed as change of period (y-axis) as a function of the concentration of the test compound (x-axis) in the XLfit™ software and the CE Delta (t+1 h) was interpolated from this curve.
In general terms: Reporter assays use an easily measured gene product as a stand-in for the process of interest.

Another data set concerns the target T2, human CK1 delta (Homo sapiens, UniProt P48730).
T2 construct: purchased Invitrogen Corporation PV3665
Briefly: FRET fluorescence test (Z'Lyte kinase assay Kit), CK1 delta. The class given is biochemical. To be noted: peptide substrate SER/THR 11 2 μM, ATP 4 times the KM. An excerpt:
The capacity of the compounds of the invention to inhibit the phosphorylation of casein by casein kinase 1 epsilon and delta may be evaluated using a FRET (“Fluorescence Resonance Energy Transfer) fluorescence test with the aid of the “Z′Lyte™ kinase assay Kit” (reference PV3670; Invitrogen Corporation™) according to the manufacturer's instructions.
The casein kinases 1 used are obtained from Invitrogen Corporation (human CK1 epsilon PV3500 and human CK1 delta PV3665).
A peptide substrate, labeled at both ends with a fluorophore donor group (coumarin) and a fluorophore acceptor group ([…]) constituting a FRET system is phosphorylated in the presence of ATP by casein kinase 1 epsilon or delta in the presence increasing concentrations of compounds of the invention. The mixture is treated with a site-specific protease that specifically cleaves the peptide substrate to form two fluorescent fragments having a large fluorescence emission ratio.
The fluorescence observed is thus related to the capacity of the products of the invention to inhibit the phosphorylation of the peptide substrate by casein kinase 1 epsilon or casein kinase 1 delta.
The compounds of the invention are dissolved at different concentrations starting with a 10 mM stock solution in DMSO diluted in a buffer containing 50 mM HEPS, pH 7.5, 1 m MEGTA, 0.01% Brij-35, 10 mM MgCl for casein kinase 1 epsilon and supplemented with Trizma Base (50 mM), pH 8.0, and NaN3 (0.01% final) for casein kinase 1 delta.
The phosphorylation of the peptide substrate SER/THR 11 obtained from Invitrogen Corporation™ is performed at a final concentration of 2 μM. The ATP concentration is 4 times the KM, this value being 2 μM for casein kinase 1 epsilon and 4 μM for casein kinase 1 delta.
The emitted fluorescence is measured at wavelengths of 445 and 520 nm (excitation at 400 nm).

T2 sequence (P48730 whole entry): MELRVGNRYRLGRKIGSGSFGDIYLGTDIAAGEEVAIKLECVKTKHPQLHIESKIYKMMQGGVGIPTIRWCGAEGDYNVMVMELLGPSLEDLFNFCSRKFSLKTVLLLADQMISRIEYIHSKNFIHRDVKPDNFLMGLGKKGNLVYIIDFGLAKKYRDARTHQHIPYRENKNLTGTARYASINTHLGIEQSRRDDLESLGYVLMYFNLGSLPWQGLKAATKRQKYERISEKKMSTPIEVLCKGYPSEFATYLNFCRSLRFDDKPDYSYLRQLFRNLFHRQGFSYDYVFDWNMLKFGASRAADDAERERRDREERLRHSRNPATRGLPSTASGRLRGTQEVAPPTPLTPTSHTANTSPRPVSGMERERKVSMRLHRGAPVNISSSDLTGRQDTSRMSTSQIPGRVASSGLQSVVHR
T1 sequence (P49674 whole entry): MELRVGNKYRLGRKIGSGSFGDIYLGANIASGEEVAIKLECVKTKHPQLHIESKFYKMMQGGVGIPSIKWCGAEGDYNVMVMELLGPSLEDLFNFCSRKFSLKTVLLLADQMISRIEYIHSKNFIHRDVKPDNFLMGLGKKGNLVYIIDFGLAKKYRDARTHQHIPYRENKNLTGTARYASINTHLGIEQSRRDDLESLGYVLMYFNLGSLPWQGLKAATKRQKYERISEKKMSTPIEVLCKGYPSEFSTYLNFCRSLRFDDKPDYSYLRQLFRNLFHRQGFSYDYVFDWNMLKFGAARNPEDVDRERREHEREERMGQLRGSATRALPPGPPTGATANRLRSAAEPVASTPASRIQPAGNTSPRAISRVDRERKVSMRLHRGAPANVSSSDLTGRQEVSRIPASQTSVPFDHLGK

Consider `OCC1CN(c2ccc3nc(-c4ccc(F)cc4)c(-c4ccnnc4)n3n2)CCN1` (racemic) [compound 39, (+/−)-{4-[2-(4-fluorophenyl)-3-pyridazin-4-ylimidazo[1,2-b]pyridazin-6-yl]piperazin-2-yl}methanol], for which the melting point (as a rule, the temperature of the solid-liquid transition) fell in the range of 205 to 212 °C. The IC50 (as a rule, the concentration at which inhibition is half-maximal) in data set [1] stood at 98 nM. Also, in data set [2], the “CE Delta (t + 1 h)” value was determined as 178 nM. With `Fc1ccc(-c2nc3ccc(N4CCNCC4)nn3c2-c2ccnnc2)cc1` [Compound No. 1, 2-(4-fluorophenyl)-6-(piperazin-1-yl)-3-(pyridazin-4-yl)imidazo[1,2-b]pyridazine], the IC50 against human CK1 delta amounted to 1 nM. For `C[C@@H]1CN(c2ccc3nc(-c4ccc(F)cc4)c(-c4ccnnc4)n3n2)CCN1` [Compound No. 2, 2-(4-fluorophenyl)-6-((R)-3-methylpiperazin-1-yl)-3-(pyridazin-4-yl)imidazo[1,2-b]pyridazine], the “CE Delta (t + 1 h)” value in data set [2] is listed as 164 nM. With `CC(C)N1CCN(c2ccc3nc(-c4ccc(F)cc4)c(-c4ccnnc4)n3n2)CC1` [Compound No. 11, 2-(4-fluorophenyl)-6-(4-isopropyl-piperazin-1-yl)-3-(pyridazin-4-yl)imidazo[1,2-b]pyridazine], at human CK1 delta, the IC50 is 50 to 65 nM. Regarding `CC(C)N1CCN(c2ccc3nc(-c4ccc(F)c(F)c4)c(-c4ccnnc4)n3n2)CC1` [compound 14, 2-(3,4-difluorophenyl)-6-(4-isopropylpiperazin-1-yl)-3-pyridazin-4-yl-imidazo[1,2-b]pyridazine], the melting point lay within 192 to 194 °C. For the same compound, in data set [2], the “CE Delta (t + 1 h)” value was found to be 62 nM.
